Data taken from publication PMC9202104 (BMC Biology, 2022).
Like-named read-outs stand apart in the source and are kept apart here.

Legend:
[1] = tested on: ZIKV human strain PAN2016 (2016/Panama); experiment: Plaque assay, inhibition of ZIKV infection (strain PAN2016); conditions: for SI (CC50/IC50): CC50 Vero E6 / IC50 ZIKV PAN2016
Description: (§1) After removal of the unbound compounds by centrifugation (after addition of 3% PEG-6000), ZIKV was incubated with Vero E6 cells in 24-well plates at 37°C for 1 h. The cells were then washed with PBS, overlaid with DMEM containing 1% carboxymethyl cellulose and 2% FBS, and cultured at 37°C for 4–5 days, followed by being stained with 0.5% crystal violet. […] Plaques in each well were calculated, and IC50 of compounds for each compound was calculated using the CalcuSyn computer program.

[2] = tested on: ZIKV mosquito strain MEX 2-81; experiment: Plaque assay, inhibition of ZIKV infection (strain MEX 2-81); format: cell-based; conditions: Zika virus, Vero C1008; plaque assay, Vero E6 cells, mosquito strain; read-out: IC50 MEX 2-81
Description: as §1

[3] = tested on: ZIKV rhesus macaque strain MR 766; experiment: Plaque assay, inhibition of ZIKV infection (strain MR 766); format: cell-based; conditions: Zika virus, Vero C1008; plaque assay, Vero E6 cells, rhesus strain; read-out: IC50 MR 766
Description: as §1

[4] = tested on: ZIKV human strain R116265; experiment: Plaque assay, inhibition of ZIKV infection (strain R116265); format: cell-based; conditions: Zika virus, Vero C1008, Vero E6 cells
Description: as §1

[5] = tested on: ZIKV human strain PAN2015; experiment: Plaque assay, inhibition of ZIKV infection (strain PAN2015); format: cell-based; conditions: Zika virus, Vero C1008, Vero E6 cells
Description: as §1

ZIKV human strain FLR = experiment: Plaque assay, inhibition of ZIKV infection (strain FLR); format: cell-based; conditions: Zika virus, Vero C1008; plaque assay, Vero E6 cells, human strain; read-out: IC50 FLR
Description: as §1

[6] = tested on: ZIKV human strain R103451; experiment: Plaque assay, inhibition of ZIKV infection (strain R103451); format: cell-based; conditions: Zika virus, Vero C1008; plaque assay, Vero E6 cells, human strain; read-out: IC50 R103451
Description: as §1

[7] = tested on: ZIKV human strain PRVABC59; experiment: Plaque assay, inhibition of ZIKV infection (strain PRVABC59); format: cell-based; conditions: Zika virus, Vero C1008; plaque assay, Vero E6 cells, human strain; read-out: IC50 PRVABC59
Description: as §1

[8] = tested on: ZIKV human strain PLCal_ZV; experiment: Plaque assay, inhibition of ZIKV infection (strain PLCal_ZV); format: cell-based; conditions: Zika virus, Vero C1008; plaque assay, Vero E6 cells, human strain; read-out: IC50 PLCal_ZV
Description: as §1

[9] = tested on: ZIKV human strain IbH 30656; experiment: Plaque assay, inhibition of ZIKV infection (strain IbH 30656); format: cell-based; conditions: Zika virus, Vero C1008; plaque assay, Vero E6 cells, human strain; read-out: IC50 IbH 30656
Description: as §1

[10] = tested on: 8 human ZIKV strains (PAN2016, R116265, PAN2015, FLR, R103451, PRVABC59, PLCal_ZV, IbH 30656); experiment: microbe, parasite or virus in culture; format: cell-based; conditions: Zika virus, read-out: Average IC50 (human strains)
Description: as §1

[11] = Cytotoxicity, Cell Counting Kit-8, Vero E6 cells; format: cell-based; conditions: African green monkey, CC50 Vero E6
Description: (§2) Briefly, compounds at 2-fold serial dilutions were added to the respective cells (2.0×10^4/well) pre-seeded in 96-well plates. The cells were cultured at 37°C in the presence of 5% CO2 for 3 days, […] incubated with CCK8 solution, followed by measurement of absorbance at 450 nm (A450 value), using a microplate reader (Infinite F200PRO, Tecan, Morrisville, NC, USA). CC50 of compounds was calculated using the CalcuSyn program.

Vero E6 cells = experiment: Cytotoxicity, Cell Counting Kit-8, Vero E6 cells; format: cell-based; conditions: African green monkey, 3 days
Description: as §2

ZIKV infection = conditions: read-out: IC50 against ZIKV infection (reported); cited from earlier work
[12] = Zika virus, Vero C1008, in Homo sapiens, read-out: IC50 against infection of ZIKV PAN2016, plaque assay, Vero E6 cells
[13] = read-out: IC50 against infection of ZIKV PAN2016, plaque assay, Vero E6 cells

Compound	IC50 [1, 12] [µM]	IC50 [1, 13] [µM]	IC50 [2] [µM]	IC50 [3] [µM]	IC50 [4] [µM]	IC50 [5] [µM]	IC50 (ZIKV human strain FLR) [µM]	IC50 [6] [µM]	IC50 [7] [µM]	IC50 [8] [µM]	IC50 [9] [µM]	IC50 [10] [µM]	CC50 at 3 days [11] [µM]	CC50 (Vero E6 cells) [µM]	SI (CC50/IC50) [1]	IC50 (ZIKV infection) [µM]
Cc1cc2c(C(C)C)c(O)c(O)c3c2c(c1-c1c(C)cc2c(C(C)C)c(O)c(O)c4c2c1OC4N)OC3N (stereo not shown) [ST069299]	2.3	2.34 ± 0.06	3.9	4.9	2.6	2.3	3.3	3.9	3.3	4	2.5	3	25.9	25.9 ± 2.7	–	–
Cc1cc2c(C(C)C)c(O)c(O)c(/C=N/NC(=O)C(C)C)c2c(O)c1-c1c(C)cc2c(C(C)C)c(O)c(O)c(/C=N/NC(=O)C(C)C)c2c1O [ST086273]	4.8	4.93 ± 0.7	2.8	5.5	7.9	5	4.2	7	4	5.9	5.4	5.5	50.5	50.5 ± 3.36	10.23	–
Cc1cc2nc[nH]c2c(/N=C/c2c(O)c(O)c(C(C)C)c3cc(C)c(-c4c(C)cc5c(C(C)C)c(O)c(O)c(/C=N/c6c(C)c(C)cc7nc[nH]c67)c5c4O)c(O)c23)c1C [ST092971]	5	4.98 ± 0.01	13.5	5.2	8	5	6.9	6.6	9.1	6.7	5.2	6.6	72.1	72.1 ± 1.91	14.48	–
CC(C)OC(=O)[C@H](C)N[P@](=O)(OC[C@H]1O[C@@H](n2ccc(=O)[nH]c2=O)[C@](C)(F)[C@@H]1O)Oc1ccccc1 [Sofosbuvir]	–	–	–	–	–	–	–	–	–	–	–	–	–	–	–	9.6
Oc1cccc(-c2c3nc(c(-c4cccc(O)c4)c4ccc([nH]4)c(-c4cccc(O)c4)c4nc(c(-c5cccc(O)c5)c5ccc2[nH]5)CC4)C=C3)c1 [Temoporfin]	–	–	–	–	–	–	–	–	–	–	–	–	–	–	–	1.1
